Data published in paper PMC5554537 (Frontiers in Pharmacology, 2017).
Where two headings read alike, the source gives them in different places.

Experiments:
[1] = Plasma, liver and brain PK after i.p. dosing with M14; format: in vivo; conditions: i.p. M14 135 mg/kg; for half-life: read-out: Terminal T1/2
Method: Concentration-time data were analyzed by non-compartmental analysis using Phoenix WinNonlin (ver 6.4, Build 6.4.0768 Pharsight, United States); all AUC values were extrapolated to infinity using the linear trapezoidal rule. A compartmental model for plasma PK after dosing with SN30000 or M14 was fitted using Phoenix NLME v1.3 with random effects on the metabolite volumes of distribution, and temperature effects based on the observed body temperature at the last measurement time. Temperature effects were added or removed until there was no significant change in the log likelihood. Model fits were further assessed by visual inspection of the residuals and predicted PK.

[2] = Stability in mouse plasma (QC samples); format: physicochemical
Source text: (§1) using octa-deuterated internal standards of SN30000, M13 and M14 synthesised as previously reported (Wang et al., 2012). Intra- and inter-day precision (expressed as relative standard deviation (RSD) and accuracy (expressed as percentage of the nominal value) were deter mined by analy sis of replicates (n=6) of low and high quality control (QC) samples on three different days. The lower limit of quantitation (LLOQ) was defined as the lowest concentration providing RSD and accuracy < 20%. Recovery from plasma and liver ho mogenates was tested at the three QC levels. The recoveries were evaluated by comparing extracted samples with blank extracted solutions spiked with analytes of the same amount.
(§2) Matrix effects, defined as the change in response due to the presence of other substances in the samples, were evaluated by comparing the analytes diluted into the blank plasma or liver extracted solution with that of the same stock solutions diluted in water. Three different concentration levels (low, medium and high QC) were evaluated by analysing three samples at each level. Accuracy , precision, recovery and matrix effects were all acceptable over the concentration ranges evaluated for plas ma (Supplementary Table 1) and for liver homogenates (Supplementary Table 2).
(§3) Stability of the analytes in mouse plasma (Supplementary Table 3) or liver homogenate (Supplementary Table 4) was confirmed during holding of QC samples on ice for up to 2 h under nor mal laboratory lighting, although there was a trend towards loss of SN30000 in plasma samples held in clear microcentrifuge tubes which may reflect the known photosensitivity of the compound (Gu et al., 2014). This loss was reduced by use of red microcentrifuge tubes, and eliminated by black tubes. Stability in both matrices was also confir med for one month storage at -80°C and for three freeze-thaw cycles, while MeOH-deproteinised samples w ere stable for 12 h at 4°C in the autosampler (Supplementary Tables

[3] = Stability in mouse liver homogenates (QC samples); format: physicochemical
Source text: as §1, §2, §3

[4] = i.p. SN30000 186 mg/kg
Method: (§4) M18 was quantified by absorbance detection with reference to an external standard calibration curve.
(§5) Concentration-time data were analyzed by non-compartmental analysis using Phoenix WinNonlin (ver 6.4, Build 6.4.0768 Pharsight, United States); all AUC values were extrapolated to infinity using the linear trapezoidal rule.
(§6) SN30000, M14 and M13 were quantified by LC-MS/MS using stable isotope internal standards, while M18 was quantified by absorbance detection using external standard calibration curves.

[5] = in vivo; conditions: NIH-III, mouse, ip, 186 mg/kg
Method: as §4, §5, §6

[6] = plasma deproteinised in 3 vol MeOH, 12 h autosampler at 4°C, nominal SN30000 0.5, M14 0.25, M13 0.1 µM
[7] = plasma deproteinised in 3 vol MeOH, 12 h autosampler at 4°C, nominal SN30000 5, M14 2.5, M13 1 µM
[8] = plasma deproteinised in 3 vol MeOH, 12 h autosampler at 4°C, nominal SN30000 50, M14 25, M13 10 µM
[9] = plasma, 1 month at -80°C, nominal SN30000 0.5, M14 0.25, M13 0.1 µM
[10] = plasma, 1 month at -80°C, nominal SN30000 5, M14 2.5, M13 1 µM
[11] = plasma, 1 month at -80°C, nominal SN30000 50, M14 25, M13 10 µM
[12] = plasma, 1 h on ice, black vial, nominal SN30000 0.5, M14 0.25, M13 0.1 µM
[13] = plasma, 1 h on ice, black vial, nominal SN30000 5, M14 2.5, M13 1 µM
[14] = plasma, 1 h on ice, black vial, nominal SN30000 50, M14 25, M13 10 µM
[15] = plasma, 1 h on ice, clear vial, nominal SN30000 0.5, M14 0.25, M13 0.1 µM
[16] = plasma, 1 h on ice, clear vial, nominal SN30000 5, M14 2.5, M13 1 µM
[17] = plasma, 1 h on ice, clear vial, nominal SN30000 50, M14 25, M13 10 µM
[18] = plasma, 1 h on ice, red vial, nominal SN30000 0.5, M14 0.25, M13 0.1 µM
[19] = plasma, 1 h on ice, red vial, nominal SN30000 5, M14 2.5, M13 1 µM
[20] = plasma, 1 h on ice, red vial, nominal SN30000 50, M14 25, M13 10 µM
[21] = plasma, 2 h on ice, black vial, nominal SN30000 0.5, M14 0.25, M13 0.1 µM
[22] = plasma, 2 h on ice, black vial, nominal SN30000 5, M14 2.5, M13 1 µM
[23] = plasma, 2 h on ice, black vial, nominal SN30000 50, M14 25, M13 10 µM
[24] = plasma, 2 h on ice, clear vial, nominal SN30000 0.5, M14 0.25, M13 0.1 µM
[25] = plasma, 2 h on ice, clear vial, nominal SN30000 5, M14 2.5, M13 1 µM
[26] = plasma, 2 h on ice, clear vial, nominal SN30000 50, M14 25, M13 10 µM
[27] = plasma, 2 h on ice, red vial, nominal SN30000 0.5, M14 0.25, M13 0.1 µM
[28] = plasma, 2 h on ice, red vial, nominal SN30000 5, M14 2.5, M13 1 µM
[29] = plasma, 2 h on ice, red vial, nominal SN30000 50, M14 25, M13 10 µM
[30] = plasma, three freeze-thaw cycles, nominal SN30000 0.5, M14 0.25, M13 0.1 µM
[31] = plasma, three freeze-thaw cycles, nominal SN30000 5, M14 2.5, M13 1 µM
[32] = plasma, three freeze-thaw cycles, nominal SN30000 50, M14 25, M13 10 µM
[33] = liver homogenate deproteinised in 3 vol MeOH, 12 h autosampler at 4°C, nominal SN30000 0.5, M14 0.25, M13 0.1 µM
[34] = liver homogenate deproteinised in 3 vol MeOH, 12 h autosampler at 4°C, nominal SN30000 5, M14 2.5, M13 1 µM
[35] = liver homogenate deproteinised in 3 vol MeOH, 12 h autosampler at 4°C, nominal SN30000 50, M14 25, M13 10 µM
[36] = liver homogenate, 1 month at -80°C, nominal SN30000 5, M14 2.5, M13 1 µM
[37] = liver homogenate, 1 month at -80°C, nominal SN30000 50, M14 25, M13 10 µM
[38] = liver homogenate, 1h on ice, clear tubes, nominal SN30000 0.5, M14 0.25, M13 0.1 µM
[39] = liver homogenate, 1h on ice, clear tubes, nominal SN30000 5, M14 2.5, M13 1 µM
[40] = liver homogenate, 1h on ice, clear tubes, nominal SN30000 50, M14 25, M13 10 µM
[41] = liver homogenate, 2h on ice, nominal SN30000 0.5, M14 0.25, M13 0.1 µM
[42] = liver homogenate, 2h on ice, nominal SN30000 5, M14 2.5, M13 1 µM
[43] = liver homogenate, 2h on ice, nominal SN30000 50, M14 25, M13 10 µM
[44] = liver homogenate, three freeze-thaw cycles, nominal SN30000 0.5, M14 0.25, M13 0.1 µM
[45] = liver homogenate, three freeze-thaw cycles, nominal SN30000 5, M14 2.5, M13 1 µM
[46] = liver homogenate, three freeze-thaw cycles, nominal SN30000 50, M14 25, M13 10 µM
[47] = HT29 tumour, tumour-bearing mice
[48] = liver, HT29 tumour-bearing mice

SMILES: c1c2c(cc3nc(CCCN4CCOCC4)nnc13)CCC2 [M13]
- half-life ([1]; NIH-III nude, mouse, ip, brain): 26 min
- half-life ([1]; NIH-III nude, mouse, ip, liver): 32.7 min
- Cmax ([1]; NIH-III nude, mouse, ip, plasma, read-out: Cmax): 4 ± 0.63 µM
- half-life ([1]; NIH-III nude, mouse, ip, plasma): 40 min
- AUC ([1]; brain): 5.3 µmol·h/kg
- Cmax ([1]; brain): 11.0 ± 1.6 µmol/kg
- AUC ([1]; liver): 14.9 µmol·h/kg
- Cmax ([1]; liver): 34.1 ± 5.4 µmol/kg
- AUC ([1]; plasma): 1.79 µmol·h/kg
- Bias [2, 6]: -3.42%
- Measured conc [2, 6]: 0.10 µM
- Bias [2, 7]: -1.26%
- Measured conc [2, 7]: 0.99 µM
- Bias [2, 8]: 5.41%
- Measured conc [2, 8]: 10.54 µM
- Bias [2, 9]: 1.68%
- Measured conc [2, 9]: 0.10 µM
- Bias [2, 10]: 1.94%
- Measured conc [2, 10]: 1.00 µM
- Bias [2, 11]: 1.85%
- Measured conc [2, 11]: 11.05 µM
- Bias [2, 12]: -7.00%
- Measured conc [2, 12]: 0.09 µM
- Bias [2, 13]: -7.17%
- Measured conc [2, 13]: 0.93 µM
- Bias [2, 14]: 5.90%
- Measured conc [2, 14]: 10.59 µM
- Bias [2, 15]: -7.05%
- Measured conc [2, 15]: 0.09 µM
- Bias [2, 16]: -3.76%
- Measured conc [2, 16]: 0.96 µM
- Bias [2, 17]: -3.61%
- Measured conc [2, 17]: 9.64 µM
- Bias [2, 18]: -5.72%
- Measured conc [2, 18]: 0.09 µM
- Bias [2, 19]: -5.29%
- Measured conc [2, 19]: 0.95 µM
- Bias [2, 20]: 0.10%
- Measured conc [2, 20]: 10.01 µM
- Bias [2, 21]: -0.52%
- Measured conc [2, 21]: 0.10 µM
- Bias [2, 22]: 1.13%
- Measured conc [2, 22]: 1.01 µM
- Bias [2, 23]: 0.55%
- Measured conc [2, 23]: 10.06 µM
- Bias [2, 24]: -9.85%
- Measured conc [2, 24]: 0.09 µM
- Bias [2, 25]: -4.92%
- Measured conc [2, 25]: 0.95 µM
- Bias [2, 26]: -8.95%
- Measured conc [2, 26]: 9.10 µM
- Bias [2, 27]: -7.29%
- Measured conc [2, 27]: 0.09 µM
- Bias [2, 28]: -4.71%
- Measured conc [2, 28]: 0.95 µM
- Bias [2, 29]: -3.91%
- Measured conc [2, 29]: 9.61 µM
- Bias [2, 30]: -4.05%
- Measured conc [2, 30]: 0.10 µM
- Bias [2, 31]: -2.61%
- Measured conc [2, 31]: 0.97 µM
- Bias [2, 32]: 4.39%
- Measured conc [2, 32]: 10.44 µM
- Bias [3, 33]: 7.07%
- Measured conc [3, 33]: 0.11 µM
- Bias [3, 34]: 10.75%
- Measured conc [3, 34]: 1.11 µM
- Bias [3, 35]: 6.40%
- Measured conc [3, 35]: 10.64 µM
- Measured conc ([3]; liver homogenate, 1 month at -80°C, nominal SN30000 0.5, M14 0.25, M13 0.1 µM): 0.11 µM
- Bias [3, 36]: 4.04%
- Measured conc [3, 36]: 1.03 µM
- Bias [3, 37]: 5.05%
- Measured conc [3, 37]: 9.12 µM
- Bias [3, 38]: 11.64%
- Measured conc [3, 38]: 0.11 µM
- Bias [3, 39]: 10.33%
- Measured conc [3, 39]: 1.10 µM
- Bias [3, 40]: 7.77%
- Measured conc [3, 40]: 10.78 µM
- Bias [3, 41]: 2.48%
- Measured conc [3, 41]: 0.10 µM
- Bias [3, 42]: 3.25%
- Measured conc [3, 42]: 1.03 µM
- Bias [3, 43]: 1.11%
- Measured conc [3, 43]: 10.11 µM
- Bias [3, 44]: -7.15%
- Measured conc [3, 44]: 0.093 µM
- Bias [3, 45]: -4.26%
- Measured conc [3, 45]: 0.96 µM
- Bias [3, 46]: 5.64%
- Measured conc [3, 46]: 10.56 µM
- Concentrations in brain compared with plasma [4]: higher in brain than plasma
- AUC (extrapolated to infinity) [4, 47]: 57.7 µmol·h/kg
- Cmax [4, 47]: 15.5 ± 2.2 µmol/kg
- AUC (extrapolated to infinity) ([4]; brain, non-tumour-bearing mice): 46.7 µmol·h/kg
- Cmax ([4]; brain, non-tumour-bearing mice): 52.8 ± 4.1 µmol/kg
- AUC (extrapolated to infinity) [4, 48]: 158 µmol·h/kg
- Cmax [4, 48]: 155.4 ± 8.4 µmol/kg
- AUC (extrapolated to infinity) ([4]; liver, non-tumour-bearing mice): 158 µmol·h/kg
- Cmax ([4]; liver, non-tumour-bearing mice): 178.7 ± 8.1 µmol/kg
- AUC (extrapolated to infinity) ([4]; plasma, HT29 tumour-bearing mice): 14. 9 µmol. hr/kg
- AUC (extrapolated to infinity) ([4]; plasma, non-tumour-bearing mice): 13.0 µmol·h/kg
- half-life ([5]; HT29 tumour, Terminal T1/2, i.p. SN30000 186 mg/kg, tumour-bearing mice): 126 min
- half-life ([5]; all tissues except tumors, Elimination half-life, i.p. SN30000 186 mg/kg): ~30 min
- half-life ([5]; brain, Terminal T1/2, i.p. SN30000 186 mg/kg, non-tumour-bearing mice): 34.9 min
- Tmax [5]: ≤ 5 min
- half-life ([5]; liver, Terminal T1/2, i.p. SN30000 186 mg/kg, HT29 tumour-bearing mice): 52.4 min
- half-life ([5]; liver, Terminal T1/2, i.p. SN30000 186 mg/kg, non-tumour-bearing mice): 42.1 min
- half-life ([5]; plasma, Terminal T1/2, i.p. SN30000 186 mg/kg, HT29 tumour-bearing mice): 53.2 min
- half-life ([5]; plasma, Terminal T1/2, i.p. SN30000 186 mg/kg, non-tumour-bearing mice): 42.4 min
